Laboratory results published in patent US4795743A, “2'-deamino-2'-hydroxyistamycin Bo derivatives of low toxicity” (Zaidan Hojin Biseibutsu Kagaku Kenkyu Kai, priority 1986, dated 1989).
Values after ≈ are worked out from the molar mass of the structure shown. Read-outs that look alike come from different tables or passages of the source.

How the values were obtained:
[1] = system: Escherichia coli JR66/W677; experiment: Antibacterial spectrum, standard serial dilution method; format: cell-based; conditions: read-out: Minimum Growth Inhibitory Concentration
[2] = system: Pseudomonas aeruguinosa 21-75; experiment: as above; format: cell-based, Pseudomonas aeruginosa; conditions: 2175, Muller-Hinton medium, 37° C., 18 hours, read-out: Minimum Growth Inhibitory Concentration
[3] = system: Escherichia coli K-12 J5 R11-2; experiment: as above; format: cell-based; conditions: K12J5R112, 18 h, read-out: Minimum Growth Inhibitory Concentration
[4] = system: Pseudomonas aeruguinosa A3; experiment: as above; format: cell-based, Pseudomonas aeruginosa; conditions: read-out: Minimum Growth Inhibitory Concentration
[5] = system: mice; experiment: Acute toxicity by intravenous injection in mice; conditions: for acute toxicity (survival, symptoms): mice, intravenous injection, 200 mg/kg
[6] = system: Corynebacterium bovis 1810; experiment: Antibacterial spectrum, standard serial dilution method; format: cell-based; conditions: read-out: Minimum Growth Inhibitory Concentration
[7] = system: Bacillus subtilis PCI 219; experiment: as above; format: cell-based; conditions: read-out: Minimum Growth Inhibitory Concentration
[8] = system: Bacillus subtilis NRRL B-558; experiment: as above; format: cell-based; conditions: read-out: Minimum Growth Inhibitory Concentration
[9] = system: Sarcina lutea PCI 1001; experiment: as above; format: cell-based; conditions: Micrococcus luteus, read-out: Minimum Growth Inhibitory Concentration
[10] = system: Escherichia coli K-12 ML1410 R81; experiment: as above; format: cell-based; conditions: K12ML1410R81, 18 h, read-out: Minimum Growth Inhibitory Concentration
[11] = system: Pseudomonas aeruguinosa H11; experiment: as above; format: cell-based, Pseudomonas aeruginosa; conditions: Muller-Hinton medium, 37° C., 18 hours, read-out: Minimum Growth Inhibitory Concentration
[12] = system: Serratia sp. 4; experiment: as above; format: cell-based; conditions: Muller-Hinton medium, 37° C., 18 hours, read-out: Minimum Growth Inhibitory Concentration
[13] = system: Klebsiella pneumoniae 22 = 3038; experiment: as above; format: cell-based; conditions: read-out: Minimum Growth Inhibitory Concentration
[14] = system: Pseudomonas aeruguinosa TI-13; experiment: as above; format: cell-based, Pseudomonas aeruginosa; conditions: TI13; Pseudomonas aeruguinosa TI-13; Muller-Hinton medium, 37° C., 18 hours; read-out: Minimum Growth Inhibitory Concentration
[15] = system: Staphylococcus epidermidis 109; experiment: as above; format: cell-based; conditions: read-out: Minimum Growth Inhibitory Concentration
[16] = system: Escherichia coli JR225; experiment: as above; format: cell-based; conditions: JR225, 18 h, read-out: Minimum Growth Inhibitory Concentration
[17] = system: Bacillus anthracis; experiment: microbe, parasite or virus in culture; format: cell-based; conditions: 18 h, read-out: Minimum Growth Inhibitory Concentration
[18] = system: Proteus rettgeri GN311; experiment: Antibacterial spectrum, standard serial dilution method; format: cell-based; conditions: Providencia rettgeri, read-out: Minimum Growth Inhibitory Concentration
[19] = system: Providencia sp. 2991; experiment: as above; format: cell-based; conditions: read-out: Minimum Growth Inhibitory Concentration
[20] = system: Pseudomonas aeruguinosa 99; experiment: as above; format: cell-based, Pseudomonas aeruginosa; conditions: Muller-Hinton medium, 37° C., 18 hours, read-out: Minimum Growth Inhibitory Concentration
[21] = system: Proteus vulgaris OX19; experiment: as above; format: cell-based; conditions: read-out: Minimum Growth Inhibitory Concentration
[22] = system: Pseudomonas aeruguinosa H9; experiment: as above; format: cell-based, Pseudomonas aeruginosa; conditions: Pseudomonas aeruguinosa H9; Muller-Hinton medium, 37° C., 18 hours; read-out: Minimum Growth Inhibitory Concentration
[23] = system: Escherichia coli K-12 R5; experiment: as above; format: cell-based; conditions: K12R5, 18 h, read-out: Minimum Growth Inhibitory Concentration
[24] = system: Escherichia coli K-12 ML1630; experiment: as above; format: cell-based; conditions: K12ML1630, E. coli K-12 ML1630, Muller-Hinton medium, 37° C., 18 hours, read-out: Minimum Growth Inhibitory Concentration
[25] = system: Pseudomonas aeruguinosa PST1; experiment: as above; format: cell-based, Pseudomonas aeruginosa; conditions: Muller-Hinton medium, 37° C., 18 hours, read-out: Minimum Growth Inhibitory Concentration
[26] = system: gram-negative and gram-positive bacteria; experiment: Antibacterial activity, overall result in words; format: cell-based; conditions: overall statement in words
[27] = system: resistant bacteria, Pseudomonas aeruginosa, resistant strains of gram-negative and gram-positive bacteria; conditions: background, earlier filings; cited from earlier work
[28] = Corynebacterium bovis 1810, Muller-Hinton medium, 37° C., 18 hours
[29] = Bacillus subtilis, PCI219, 18 h
[30] = Staphylococcus epidermidis, 109, 18 h
[31] = Pseudomonas aeruguinosa A3, Muller-Hinton medium, 37° C., 18 hours
[32] = NRRLB558, Bacillus subtilis NRRL B-558, Muller-Hinton medium, 37° C., 18 hours
[33] = Proteus rettgeri GN311, Muller-Hinton medium, 37° C., 18 hours

Row | Structure (SMILES) | MIC ([1]; JR66/W677, 18 h) | MIC [2] | MIC [3] | acute toxicity (survival, symptoms) [5] | MIC [6, 28] | MIC [7, 29] | MIC ([9]; PCI1001, 18 h) | MIC [10] | MIC [11] | MIC [12] | MIC [14] | MIC [15, 30] | MIC [16] | MIC [17] | MIC [20] | MIC ([21]; Proteus vulgaris, OX19, 18 h) | MIC [22] | MIC [23] | MIC [24] | MIC [25] | also measured
1 | CNCC1CCC(O)C(OC2C(N)CC(OC)C(N(C)C(=O)CCN)C2O)O1 (stereo not drawn) [Compound No. 3, 4-N-(β-Alanyl)-2'-deamino-2'-hydroxyistamycin Bo] | 6.25 µg/mL (≈ 15.5 µM) | 100 µg/mL (≈ 247 µM) | 3.13 µg/mL (≈ 7.74 µM) | survived without showing any sympton of toxicity | 12.5 µg/mL (≈ 30.9 µM) | 6.25 µg/mL (≈ 15.5 µM) | 3.13 µg/mL (≈ 7.74 µM) | 25 µg/mL (≈ 61.8 µM) | 100 µg/mL (≈ 247 µM) | 100 µg/mL (≈ 247 µM) | 100 µg/mL (≈ 247 µM) | 3.13 µg/mL (≈ 7.74 µM) | 3.13 µg/mL (≈ 7.74 µM) | 3.13 µg/mL (≈ 7.74 µM) | > 100 µg/mL | 3.13 µg/mL (≈ 7.74 µM) | 50 µg/mL (≈ 124 µM) | 3.13 µg/mL (≈ 7.74 µM) | 12.5 µg/mL (≈ 30.9 µM) | 100 µg/mL (≈ 247 µM) | MIC ([4]; Pseudomonas, A3, 18 h): 3.13 µg/mL (≈ 7.74 µM); MIC ([8]; Bacillus subtilis, NRRLB558, 18 h): 3.13 µg/mL (≈ 7.74 µM); MIC ([13]; Klebsiella pneumoniae 22 = 3038, Muller-Hinton medium, 37° C., 18 hours): 12.5 µg/mL (≈ 30.9 µM); MIC ([18]; GN311, 18 h): 3.13 µg/mL (≈ 7.74 µM); MIC ([19]; Providencia sp. 2991, Muller-Hinton medium, 37° C., 18 hours): 12.5 µg/mL (≈ 30.9 µM)
2 | CNCC1CCC(O)C(OC2C(N)CC(O)C(N(C)C(=O)CCN)C2O)O1 (stereo not drawn) [Compound No. 4, 4-N-(β-Alanyl)-2'-deamino-2'-hydroxy-3-O-demethylistamycin Bo] | 3.13 µg/mL (≈ 8.02 µM) | 12.5 µg/mL (≈ 32 µM) | 0.78 µg/mL (≈ 2 µM) | survived without showing any sympton of toxicity |  | 3.13 µg/mL (≈ 8.02 µM) | 1.56 µg/mL (≈ 4 µM) | 6.25 µg/mL (≈ 16 µM) | 12.5 µg/mL (≈ 32 µM) | 12.5 µg/mL (≈ 32 µM) | 12.5 µg/mL (≈ 32 µM) | 1.56 µg/mL (≈ 4 µM) | 1.56 µg/mL (≈ 4 µM) | 1.56 µg/mL (≈ 4 µM) | 25 µg/mL (≈ 64 µM) | 1.56 µg/mL (≈ 4 µM) | 12.5 µg/mL (≈ 32 µM) | 1.56 µg/mL (≈ 4 µM) | 6.25 µg/mL (≈ 16 µM) | 12.5 µg/mL (≈ 32 µM) | MIC [4, 31]: 0.39 µg/mL (≈ 0.999 µM); toxicity ([5]; overall statement, comparison with istamycin B or low toxicity): lower toxicity than itstamycin B; MIC ([6]; Corynebacterium bovis, 1810, 18 h): 3.13 µg/mL (≈ 8.02 µM); MIC [8, 32]: 0.78 µg/mL (≈ 2 µM); MIC ([13]; Klebsiella pneumoniae, 18 h): 3.13 µg/mL (≈ 8.02 µM); antibacterial activity [26]: very much good antibacterial activity; antibacterial activity ([26]; listed as 4-N-(β-alanyl)-2'-deamino-2'-hydroxy-3-O-demethylistamycin Bo): antibacterial activity as high as that of istamycin B; MIC [18, 33]: 0.78 µg/mL (≈ 2 µM); MIC ([19]; Providencia, SP.2991, 18 h): 3.13 µg/mL (≈ 8.02 µM)
3 | CNCC1CCC(N)C(OC2C(N)CC(OC)C(N(C)C(=O)CN)C2O)O1 (stereo not drawn) [Istamycin B, istamycin B] |  | 50 µg/mL (≈ 128 µM) | 0.78 µg/mL (≈ 2 µM) |  | 0.78 µg/mL (≈ 2 µM) |  |  | 1.56 µg/mL (≈ 4.01 µM) | 50 µg/mL (≈ 128 µM) | 50 µg/mL (≈ 128 µM) | 25 µg/mL (≈ 64.2 µM) |  | 0.78 µg/mL (≈ 2 µM) | 0.78 µg/mL (≈ 2 µM) | > 100 µg/mL |  | 12.5 µg/mL (≈ 32.1 µM) | 0.78 µg/mL (≈ 2 µM) | 6.25 µg/mL (≈ 16 µM) | 50 µg/mL (≈ 128 µM) | MIC ([1]; E. coli JR66/W677, Muller-Hinton medium, 37° C., 18 hours): 1.56 µg/mL (≈ 4.01 µM); antibacterial activity [27]: highest antibacterial activity; MIC [4, 31]: 0.39 µg/mL (≈ 1 µM); MIC ([7]; PCI219, Bacillus subtilis PCI 219, Muller-Hinton medium, 37° C., 18 hours): 0.78 µg/mL (≈ 2 µM); MIC [8, 32]: 0.78 µg/mL (≈ 2 µM); MIC ([9]; PCI1001, Sarcina lutea PCI 1001, Muller-Hinton medium, 37° C., 18 hours): 0.39 µg/mL (≈ 1 µM); MIC ([13]; Klebsiella pneumoniae, 18 h): 3.13 µg/mL (≈ 8.04 µM); MIC ([15]; Staphylococcus epidermidis, S. epidermidis 109, Muller-Hinton medium, 37° C., 18 hours): 0.78 µg/mL (≈ 2 µM); MIC [18, 33]: 1.56 µg/mL (≈ 4.01 µM); MIC ([19]; Providencia, SP.2991, 18 h): 3.13 µg/mL (≈ 8.04 µM); MIC ([21]; Proteus vulgaris OX19, Muller-Hinton medium, 37° C., 18 hours): 0.78 µg/mL (≈ 2 µM)
